From PubChem BioAssay (NCI)
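All cell lines were grown in 96-well plates and treated with compound for 48 hours. GI50: concentration for 50% inhibition of growth. At the TGI there is no net growth.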

What was measured:
Assay in all cases: NCI-60 cell line screen, 48 h
[1] = system: 786-0 renal
[2] = system: CAKI-1 renal
[3] = system: TK-10 renal
[4] = system: UACC-62 melanoma
[5] = system: HCC-2998 colon
[6] = system: HS 578T breast
[7] = system: OVCAR-3 ovarian
[8] = system: SF-295 CNS
[9] = system: EKVX NSCLC
[10] = system: NCI-H23 lung
[11] = system: A549 NSCLC
[12] = system: UACC-257 melanoma
[13] = system: SR leukemia
[14] = system: IGROV1 ovarian
[15] = system: COLO 205 colon
[16] = system: ACHN renal
[17] = system: SK-MEL-5 melanoma
[18] = system: SK-OV-3 ovarian
[19] = system: NCI-H522 lung
[20] = system: SF-539 CNS
[21] = system: MCF7 breast
[22] = system: RPMI-8226 leukemia
[23] = system: CCRF-CEM leukemia
[24] = system: NCI-H226 lung
[25] = system: OVCAR-5 ovarian
[26] = system: M14 melanoma
[27] = system: UO-31 renal

`COc1ccc(C(=O)/C=C/c2cc3c(cc2Br)OCO3)cc1S(N)(=O)=O` gave a GI50 [1] of 3.68 µM, a TGI [1] of 15.4 µM and a GI50 [2] of 4.55 µM. The TGI [2] was 23.9 µM, the GI50 [3] was 14.6 µM and the TGI [3] was 36.3 µM. For the same molecule, the GI50 [4] was 4.07 µM, the TGI [4] was 23.5 µM and the GI50 [5] was 5.39 µM. The TGI [5] was 24.2 µM, the GI50 [6] was 20.8 µM and the TGI [6] was over 100 µM. For the same molecule, the GI50 [7] was 2.55 µM, the TGI [7] was 6.62 µM and the GI50 [8] was 6.21 µM. The TGI [8] was 25.4 µM, the GI50 [9] was 9.71 µM and the TGI [9] was 42.9 µM. For the same molecule, the GI50 [10] was 4.24 µM, the TGI [10] was 28 µM and the GI50 [11] was 2.7 µM. For the same molecule, the TGI [11] was 10.5 µM, the GI50 [12] was 14.9 µM and the TGI [12] was 42.7 µM. The GI50 [13] was 1.54 µM, the TGI [13] was 4.58 µM and the GI50 [14] was 2.8 µM. The TGI [14] was 12.7 µM, the GI50 [15] was 5.39 µM and the TGI [15] was over 100 µM. For the same molecule, the GI50 [16] was 1.97 µM, the TGI [16] was 4.11 µM and the GI50 [17] was 9.12 µM. It also gave a TGI [17] of 29.2 µM, a GI50 [18] of 14.4 µM and a TGI [18] of 34.1 µM. It also gave a GI50 [19] of 2.79 µM, a TGI [19] of 14.9 µM and a GI50 [20] of 1.72 µM. The TGI [20] was 3.27 µM, the GI50 [21] was 3.84 µM and the TGI [21] was 19.5 µM. For the same molecule, the GI50 [22] was 2.87 µM, the TGI [22] was 10.6 µM and the GI50 [23] was 6.67 µM. The TGI [23] was 38.1 µM, the GI50 [24] was 2.8 µM and the TGI [24] was 10.9 µM. For the same molecule, the GI50 [25] was 2.65 µM, the TGI [25] was 10.2 µM and the GI50 [26] was 9.16 µM. The TGI [26] was 25.5 µM, the GI50 [27] was 2.64 µM and the TGI [27] was 12.8 µM.
